According to patent US20220331371A1, “DEVELOPMENT OF EMBRYONIC-LIKE TISSUE FROM STEM CELLS” (The Regents of the University of Michigan, priority 2019, published 2022):

Legend:
[1] = system: human ES cells co-cultured with Transwell-AMLCs; assay: Transwell co-culture assay of AMLCs and human ES cells; format: cell-based; settings: 5 μM in Transwell co-culture, 48 h
Experimental: Immunocytochemistry. hPSCs were fixed in 4% paraformaldehyde (PFA; buffered in 1× PBS) for 12 h, and permeabilized in 0.1% SDS solution (sodium dodecyl sulphate, dissolved in PBS) for another 3 h. Samples were then blocked in 4% donkey serum (Sigma-Aldrich) at 4° C. for 24 h, followed by incubation with primary antibody solutions at 4° C. for another 24 h. Samples were then labelled with donkey-raised secondary antibodies (1:500 dilution) at 4° C. for 24 h, 4,6-diamidino-2-phenylindole (DAPI; Thermo Fisher Scientific) was used for counterstaining cell nuclei. Alexa Fluor dye-conjugated WGA (Thermo Fisher Scientific) and phalloidin (Invitrogen) were used for visualization of cell membrane and actin microfilaments, respectively. Both primary and secondary antibodies were prepared in 4% donkey serum supplemented with 0.1% NaN3. Seventy microlitre antibody solutions were added to each medium reservoir for immunostaining. The asymmetric embryonic-like sac structure was assessed by immunocytochemistry to confirm molecular asymmetry at t=36 h (for P-ELS: co-staining for TFAP2A and T; for A-ELS: co-staining for TFAP2A and NANOG). In situ hybridization. […] For morphogenetic quantification, bright-field or phase-contrast images were acquired using a Zeiss Observer Z1 microscope (Carl Zeiss MicroImaging) equipped with a monochrome CCD camera (AxioCam, Carl Zeiss MicroImaging). […]

[2] = system: PrePS-EPI-like cells in P-ELS; assay: Posterior primitive streak-like cell development in P-ELS with antagonists in the induction channel; format: cell-based, human
Excerpt: Cell lines. hPSC lines used in this study include H1 human ES cell (WA01, WiCell; NIH registration number: 0043), H9 human ES cell (WA09, WiCell; NIH registration number: 0062) and 1196a (a human iPSC line from the University of Michigan Pluripotent Stem Cell Core31). All hPSC lines have been authenticated by original sources as well as in-house by immunostaining for pluripotency markers and successful differentiation to the three germ layers. All hPSC lines are maintained in a feeder-free system for at least ten passages and authenticated as karyotypically normal. Karyotype analysis was performed by Cell Line Genetics. All hPSC lines are tested negative for mycoplasma contamination (LookOut Mycoplasma PCR Detection Kit, Sigma-Aldrich). Cell culture. hPSCs were maintained in a standard feeder-free culture system using mTeSR medium (mTeSR; STEMCELL Technologies) or TeSR-E8 medium (Essential 8 or E8; STEMCELL Technologies) and lactate dehydrogenase-elevating virus (LDEV)-free, human ES cell-qualified reduced growth factor basement membrane matrix Geltrex (Thermo Fisher Scientific; derived from Engelbreth-Holm-Swarm tumors similarly to Matrigel). Cell cultures were visually examined during each passage to ensure absence of spontaneously differentiated, mesenchymal-like cells in culture. All hPSCs were used before reaching P70. Device fabrication. The microfluidic device consists of a polydimethylsiloxane (PDMS) structure layer bonded to a coverslip. The PDMS structure layer is made by mixing PDMS curing agent and base polymer (Sylgard 184; Dow Coming) at a ratio of 1:10 before casting PDMS prepolymer onto a microfabricated silicon mold and baking at 110° C. for 40 min. Medium reservoirs (8 mm in diameter) and gel-loading ports (1.2 mm in diameter) were then punched into the PDMS structure layer using Harris Uni-Core punch tools (Ted Pella). After cleaning with ethanol and air plasma activation, the PDMS structure layer was bonded to a coverslip before baking at 80° C. overnight. Before usage, the microfluidic device was sterilized under UV light for 30 min. […]

## Cc1ccc2nc(NC(=O)CSc3nc4c(c(=O)n3-c3ccccc3)SCC4)sc2c1 [IWP2]
[1]
  Differentiation of posterior primitive streak-like cells: inhibited
[2]; IWR1 10 μM or IWP2 5 μM
  Inhibition of induction of MeLC in posteriorized embryonic-like sac: inhibited
[2]; supplemented in the induction channel (IWP2 5 μM, IWR1 10 μM, noggin 50 ng ml^−1), BMP4 in cell-loading channel
  Inhibition of PrePS-EPI-like cell development: completely inhibited
